Test results as given in patent publication US20240408064A1, “RAS INHIBITORS, COMPOSITIONS AND METHODS OF USE THEREOF” (GENETOLEAD INC., priority 2021, published 2024).
pKd: −log10 of the molar value. Several values for one entry are separate records, joined by “and”; a condition that tells them apart may be missing. Equal values may be shown once. Entries after “also recorded” stand apart in the source; their conditions may differ.

Tests used:
[1] = target: T1, HRas^G12V (Homo sapiens (Human), UniProt P01112, G12V); experiment: 19F DLB (ligand-observed 19F NMR) score; assay type: binding; design: scale not given here
Procedure, shortened: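 In the T2-CPMG experiment, echo spacing was 1 ms and total delays ranged over eight values from 1 to 800 ms. Both scores come from 600 MHz NMR of 50 μM HRas G12V mixed with fragment pools at 240 μM each, in phosphate buffer pH 7.4 with NaCl, MgCl2 and TCEP-d16. Ligand-observed 19F spectra were recorded with 1H decoupling, 64 scans and a 5 s relaxation delay.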

[2] = target: T2, KRAS^G12D-GDP (Homo sapiens (Human), UniProt P01116, G12D); experiment: 19F DLB score, KRAS^G12D-GDP; assay type: binding; design: scale not given here
T2 sequence (P01116-2 other isoform, or with tags, fused parts or gaps G12D): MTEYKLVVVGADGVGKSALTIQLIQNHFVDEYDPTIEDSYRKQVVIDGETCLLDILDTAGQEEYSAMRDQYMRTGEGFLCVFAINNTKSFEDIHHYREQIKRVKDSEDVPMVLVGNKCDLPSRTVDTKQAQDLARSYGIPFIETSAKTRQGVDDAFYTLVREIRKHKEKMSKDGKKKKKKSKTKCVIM
Experimental: (§1) Since the fragment library was curated using phosphate buffer, 25 mM sodium phosphate pH 7.4, 150 mM NaCl, 5 mM MgCl2, 1 mM TCEP-d16, 10% D2O Fresh TCEP was used for experiments. Screening was performed using ^1H-decoupled 1D ^19F experiment Bruker experiment (zgfhigqn.2) with 64 scans and a relaxation delay of 5 seconds. 50 μM HRas^G12V and 240 μM of each fragment in pools (mixtures) were used.
(§2) Hit confirmation was performed using the same ^19F experiment as the screen. Ligand-observed 1D ^1H, protein-observed 1D ^1H, ^1H T2-CPMG as well as Saturation Transfer Difference (STD) experiments were also run on the same samples. Ligand-observed 1D ^1H was run using the standard Bruker sequence with excitation sculpting (zgesgp) with a relaxation delay of 10 seconds and 16 scans per spectrum. Protein-observed 1D ^1H was performed using the same sequence with a relaxation delay of 1 second and 256 scans in order to increase the signal-to-noise of the protein resonances, while keeping the experimental time relatively short. The ^1H T2-CPMG experiment employed a modified version of the Bruker 1D ^1H zgesgp experiment with the addition of a CPMG pulse train after the first 90° excitation pulse. Total duration for each spin echo was fixed at 1 ms (τ=500 μs), while the number of echoes in the pulse train was varied according to the total time (T). The number of scans for each spectrum was 4 and eight delay times were run on each sample, ranging from 1 ms to 800 ms.
(§3) The activity of compounds of the invention regarding KRAS^G12D-GDP was measured in the same as in Example 80. The results obtained with the compounds in the various assays described above are depicted in Table 23.

[3] = target: T1, HRas^G12V; experiment: Overall binding/activity in the various assays (NMR consensus binding)
Procedure, shortened: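 Fragments (240 µM each, pooled) screened against 50 µM HRas^G12V in 25 mM sodium phosphate pH 7.4, 150 mM NaCl, 5 mM MgCl2, 1 mM TCEP-d16 by 1H-decoupled 1D 19F NMR. Hits confirmed by ligand- and protein-observed 1D 1H, STD and T2-CPMG (aggregation check); consensus binding ranked, with 15N HSQC for sites and Kd.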

[4] = target: T1, HRas^G12V; experiment: Dissociation constant by NMR (1H/15N Fast-HSQC, 1H 1D protein-observed); assay type: binding; settings: HRas^G12V; read-out: NMR Kd
Experimental: All NMR experiments were collected using 3 mm NMR tubes on a 600 MHz Bruker Avance III spectrometer equipped with a QCI helium cryoprobe and a SampleJet sample changer. The buffer used for NMR experiments was 25 mM sodium phosphate pH 7.4, 150 mM NaCl, 5 mM MgCl2, 1 mM TCEP-d16, 10% D2O. Data were processed using Bruker TopSpin.
^1H/^15N Fast-HSQC experiments (Mori et al., Journal of Magnetic Resonance, Series B, Volume 108, Issue 1, July 1995, Pages 94-98) were recorded at a protein concentration of 50-100 μM.
Dissociation constants were obtained by monitoring changes in chemical shifts as a function of ligand concentration. The changes in chemical shifts (d) were calculated according to the following equation (Williamson, Progress in Nuclear Magnetic Resonance Spectroscopy, Volume 73, August 2013, Pages 1-16): d=√(1/2[δ_H^2+[…]]), Where δ are the changes in chemical shift in ppm for ^1H and ^15N and the correction factor (α) was set at 0.15.
^1H 1D protein-observed experiments were recorded with 15-50 μM protein. The standard Bruker 1D ^1H sequence with excitation sculpting (zgesgp) was employed. A relaxation delay of 1 s was employed in order to use 256 scans while still keeping experimental time fairly short. Changes in protein chemical shift or peak intensity in the methyl region were monitored against compound concentration.

[5] = target: T2, KRAS^G12D-GDP; experiment: 19F T2-CPMG score, KRAS^G12D-GDP; assay type: binding
Experimental: as §1, §2, §3

[6] = target: GDP-HRas^G12V (Homo sapiens (Human), UniProt P01112, G12V); experiment: Dissociation constant by microscale thermophoresis (MST); assay type: binding
Experimental: MST experiments were performed with a Monolith NT.115 Pico (NanoTemper Technologies, Munich, Germany). […] Data was acquired in PBS buffer with 0.1% pluronic acid. Data was analyzed with the NanoTemper MO.Affinity Analysis software.

Row | 19F DLB Score [1] | 19F DLB Score [2] | Activity ranking on HRas^G12V (in words) [3] | pKd [4] | 19F T2-CPMG Score [5] | pKd [6] | Compound
1 | 1.64 and 1.79 and 1.93 and 1.86 and 1.71 | 1.73 | More active | 2.43 to 2.52 | 12.20 | – | CC(C)N1CCC(NC(=O)Cc2c[nH]c3cc(F)ccc23)CC1 [Compound 10018]
2 | 3.04 | 3.33 | More active | 2.40 to 2.63 | >LOQ | 2.68 to 2.74 | O=C(Cc1c[nH]c2cc(F)ccc12)N1CCC(O)CC1 [Compound 10086]
3 | 4.19 | 3.56 | More active; also recorded: Most active | 4.44 | >LOQ | 4.63 to 4.72 | CN(C)CCOc1cccc(NC(=O)Cc2c[nH]c3cc(F)ccc23)c1 [Compound 10095, N-(3-(2-(dimethylamino)ethoxy)phenyl)-2-(6-fluoro-1H-indol-3-yl)acetamide]
4 | 3.84 | 4.36 | More active; also recorded: Most active | 3.97 | >LOQ | 4.08 to 4.19 | CN(C)CC(=O)Nc1cccc(NC(=O)Cc2c[nH]c3cc(F)ccc23)c1 [compound 10097]
